Values joined by “and” are separate entries in the source; they are usually repeats but may differ in a detail not shown here. Identical values can stand only once.

The target of experiment [1] is T1, Genome polyprotein (dengue virus type 2, UniProt P29990). The experiment is classed as functional, Thailand/16681/1984.
The target in experiment [2] is T1, Genome polyprotein. The experiment is classed as functional, Thailand/16681/1984. The source holds these as a separate data set.

T1 sequence (P29990 1346-1475 limits assumed): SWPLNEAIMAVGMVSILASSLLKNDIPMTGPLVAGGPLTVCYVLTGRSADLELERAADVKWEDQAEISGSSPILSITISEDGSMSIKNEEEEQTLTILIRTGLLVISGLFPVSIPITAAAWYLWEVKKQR
T1 sequence (P29990 1476-2093 limits assumed): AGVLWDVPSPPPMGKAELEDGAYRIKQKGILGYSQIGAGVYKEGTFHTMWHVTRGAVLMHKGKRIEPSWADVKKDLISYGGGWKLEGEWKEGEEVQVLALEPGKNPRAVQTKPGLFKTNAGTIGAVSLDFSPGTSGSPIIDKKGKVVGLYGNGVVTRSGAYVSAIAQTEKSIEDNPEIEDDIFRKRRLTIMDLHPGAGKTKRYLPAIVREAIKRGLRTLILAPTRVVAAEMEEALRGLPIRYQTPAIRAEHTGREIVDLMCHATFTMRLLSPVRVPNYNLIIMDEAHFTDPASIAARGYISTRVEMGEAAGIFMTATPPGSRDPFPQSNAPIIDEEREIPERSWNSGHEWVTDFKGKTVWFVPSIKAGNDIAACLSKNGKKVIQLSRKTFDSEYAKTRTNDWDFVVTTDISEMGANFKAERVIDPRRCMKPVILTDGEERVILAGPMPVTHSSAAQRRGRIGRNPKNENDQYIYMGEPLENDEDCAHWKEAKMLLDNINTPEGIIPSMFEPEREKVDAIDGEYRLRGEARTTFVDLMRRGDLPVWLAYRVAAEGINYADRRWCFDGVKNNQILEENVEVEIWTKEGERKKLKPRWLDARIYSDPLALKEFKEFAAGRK

In general, IC50 refers to the concentration needed to halve the response being measured. The low end stands for higher potency, the high end for lower potency. As for `Cc1c(C(=O)Nc2cccc(CS(C)(=O)=O)c2)cc(C2CC2)n1C`, the IC50 at Genome polyprotein [1] was above 99.5 µM; against Genome polyprotein [2] it was above 100 µM.

As to `O=C(NCC(F)F)[C@H](Nc1ncc2c(n1)CNC2)c1cc(Cl)cc(C2CC2)c1`, the figures for the IC50 on Genome polyprotein [1] and on Genome polyprotein [2] were above 99.5 µM and above 100 µM, respectively.

For `NC(=O)COc1ccc(Br)cc1[C@H](Nc1ccc2c(c1)CNC2)C(=O)NCC(F)F`, the IC50 is above 99.5 µM on Genome polyprotein [1] and above 100 µM against Genome polyprotein [2].

Consider `Cn1nc(CNc2cc(-c3cccnc3)ccn2)cc1C1CC1`, for which the IC50 against Genome polyprotein [1] is above 99.5 µM; against Genome polyprotein [2] it was above 100 µM.

For `CC(=O)N(c1ccc2c(c1)CNC2)[C@]1(c2cc(Cl)cc(C3CC3)c2)CN(C)C1=O`, the IC50 on Genome polyprotein [1] was above 99.5 µM; on Genome polyprotein [2], above 100 µM.

`CO[C@H]1Cc2ccc(NC(=O)c3cc(C4CC4)n(C)c3C)cc2C1`: the IC50 on Genome polyprotein [1] was above 99.5 µM; against Genome polyprotein [2], above 100 µM.

For `O=C1Cc2c(cccc2C(=O)Nc2ccc3[nH]nnc3c2)N1`, the figures for the IC50 on Genome polyprotein [1] and against Genome polyprotein [2] were above 99.5 µM and above 100 µM, respectively.

Regarding `C=C(C)c1ccc(Cl)cc1[C@H](Nc1ccc2c(c1)CNC2)C(=O)NCC(F)F`, the IC50 was above 99.5 µM at Genome polyprotein [1] and above 100 µM against Genome polyprotein [2].

In the case of `Cc1c(C(=O)Nc2ccc3c(c2)C[C@H](C(N)=O)O3)cc(C2CC2)n1C`, the IC50 was above 99.5 µM at Genome polyprotein [1] and above 100 µM against Genome polyprotein [2].

Take `N#CCOc1ccc(Br)cc1[C@H](Nc1ccc2c(c1)CNC2)C(=O)NCC(F)F`: the IC50 against Genome polyprotein [1] was above 99.5 µM; on Genome polyprotein [2], above 100 µM.

In the case of `Cc1c(C(=O)Nc2ccc3c(c2)CCC(=O)N3CC2CCC2)cc(C2CC2)n1C`, the IC50 is above 99.5 µM on Genome polyprotein [1] and above 100 µM on Genome polyprotein [2].

On to `Clc1cc(CNc2ncc3c(n2)CNC3)c2cn[nH]c2c1`, for which the IC50 was above 99.5 µM against Genome polyprotein [1] and above 100 µM against Genome polyprotein [2].

In the case of `Clc1cc(CNc2ccc3c(n2)CNC3)c2cn[nH]c2c1`, the IC50 is above 99.5 µM against Genome polyprotein [1] and above 100 µM against Genome polyprotein [2].

Turning to `Cc1c(C(=O)Nc2cccc(-c3nc(C4CC4)no3)c2)cc(C2CC2)n1C`, the IC50 at Genome polyprotein [1] was above 99.5 µM; against Genome polyprotein [2], above 100 µM.

As for `CC(=O)N1CC[C@]2(C1)C(=O)Nc1cccc(C(=O)Nc3ccc4c(c3)CNC4)c12`, the IC50 against Genome polyprotein [1] is above 99.5 µM; on Genome polyprotein [2], above 100 µM.

As to `N#Cc1cccc(-c2nc3c(C(=O)Nc4cccc(F)c4)cc(Cl)cc3[nH]2)c1`, the IC50 is above 99.5 µM at Genome polyprotein [1] and above 100 µM against Genome polyprotein [2].

Take `CC(C)NC(=O)C[C@H]1NCc2cc(NC(=O)c3cc(Cl)cc4[nH]ncc34)ccc21`: the figures for the IC50 against Genome polyprotein [1] and on Genome polyprotein [2] were above 99.5 µM and above 100 µM, respectively.

Consider `O=C(NCC(F)F)[C@H](Nc1cc2c(cc1Br)CNC2)c1cc(Cl)cc(C2CC2)c1`, for which the IC50 on Genome polyprotein [1] was above 99.5 µM; at Genome polyprotein [2] it was 91.9 µM and 70.7 µM.

Take `O=C(NCC(F)F)[C@H](Nc1ccc2c(c1)CNC2)c1cc(Cl)cc2cccnc12`: the IC50 is 93 µM at Genome polyprotein [1]; 128 µM and 125 µM against Genome polyprotein [2].

On to `O=C(Nc1ccc2c(c1)CN[C@H]2CC1CC1)c1cc(F)cc2[nH]ncc12`, for which the IC50 against Genome polyprotein [1] was 37.9 µM; on Genome polyprotein [2], 31.3 µM and 22.1 µM.

On to `CC1(C)NCc2cc(NC(=O)c3cc(F)cc4[nH]ncc34)ccc21`, for which the IC50 on Genome polyprotein [1] was above 99.5 µM; against Genome polyprotein [2], above 100 µM.

With `CC(C)(C)OC(=O)N1Cc2ccc(N[C@H](C(=O)O)c3cc(Cl)cc4[nH]ncc34)cc2C1`, the IC50 against Genome polyprotein [1] is 78.2 µM; on Genome polyprotein [2], 57.6 µM and 41.9 µM.

With `Cc1c(C(=O)Nc2cccc(-c3ccoc3)c2)cc(C2CC2)n1C`, the figures for the IC50 on Genome polyprotein [1] and at Genome polyprotein [2] were above 99.5 µM and above 100 µM, respectively.

As to `CN(C)C(=O)C[C@H]1NCc2cc(NC(=O)c3cc(Cl)cc4[nH]ncc34)ccc21`, the values for the IC50 against Genome polyprotein [1] and against Genome polyprotein [2] were above 99.5 µM and above 100 µM, respectively.

With `CS(=O)(=O)NC(=O)C[C@H]1NCc2cc(NC(=O)c3cc(Cl)cc4[nH]ncc34)ccc21`, the IC50 against Genome polyprotein [1] is above 296 µM; against Genome polyprotein [2], above 300 µM.

Take `CC(C)(C)NC(=O)C[C@H]1NCc2cc(NC(=O)c3cc(Cl)cc4[nH]ncc34)ccc21`: the IC50 is above 99.5 µM against Genome polyprotein [1] and above 100 µM at Genome polyprotein [2].

Take `C[C@H]1NCc2ccc(NC(=O)c3cc(Cl)cc4[nH]ncc34)cc21`: the IC50 on Genome polyprotein [1] is above 99.5 µM; against Genome polyprotein [2] it was above 100 µM.

In the case of `CNC(=O)C[C@H]1NCc2cc(NC(=O)c3cc(Cl)cc4[nH]ncc34)ccc21`, the values for the concentration for half-maximal inhibition (IC50) on Genome polyprotein [1] and against Genome polyprotein [2] were above 99.5 µM and above 100 µM, respectively.

Take `CC(=O)N[C@]1(C)C(=O)Nc2cc(F)cc(C(=O)Nc3ccc4c(c3)CNC4)c21`: the IC50 against Genome polyprotein [1] is above 99.5 µM; on Genome polyprotein [2] it was above 100 µM.

With `O=C1Cc2c(cccc2C(=O)Nc2cc(Br)c3ncnn3c2)N1`, the IC50 is above 99.5 µM on Genome polyprotein [1] and above 100 µM against Genome polyprotein [2].

As to `O=C(Nc1ccc2c(c1)CNC2)c1cc(Cl)cc2[nH]c(-c3cccc(F)c3)nc12`, the IC50 is 2.64 µM against Genome polyprotein [1]; 17.4 µM and 12.8 µM at Genome polyprotein [2].

Take `C[C@]1(S(C)(=O)=O)C(=O)Nc2cc(F)cc(C(=O)Nc3ccc4c(c3)CNC4)c21`: the IC50 on Genome polyprotein [1] was above 99.5 µM; on Genome polyprotein [2], above 100 µM.

Regarding `Cc1c(C(=O)Nc2ccc3c(c2F)CCN(C)C3=O)cc(C2CC2)n1C`, the IC50 on Genome polyprotein [1] is above 99.5 µM; against Genome polyprotein [2], above 100 µM.

Take `Cc1c(C(=O)Nc2cccc(Cn3cccn3)c2)cc(C2CC2)n1C`: the half-maximal inhibitory concentration (IC50) was above 99.5 µM against Genome polyprotein [1] and above 100 µM on Genome polyprotein [2].

For `O=C1Cc2c(cccc2C(=O)Nc2ccc(O[C@H]3CCOC3)nc2)N1`, the IC50 against Genome polyprotein [1] is above 99.5 µM; on Genome polyprotein [2], above 100 µM.

Take `O=C1Cc2c(cccc2C(=O)Nc2cccc(-c3cn[nH]c3)c2)N1`: the IC50 is above 99.5 µM against Genome polyprotein [1] and above 100 µM against Genome polyprotein [2].

`O=C(Nc1ccc2c(c1)CN[C@H]2C1CC1)c1cc(F)cc2[nH]ncc12`: the IC50 is 13.5 µM at Genome polyprotein [1]; 15.7 µM and 16.1 µM at Genome polyprotein [2].

As for `Cc1c(C(=O)Nc2cc(C3CCOCC3)ccn2)cc(C2CC2)n1C`, the IC50 was above 99.5 µM against Genome polyprotein [1] and above 100 µM against Genome polyprotein [2].

Consider `N#Cc1cccc(-c2nc3c(C(=O)Nc4ccc(F)cc4)cc(Cl)cc3[nH]2)c1`, for which the values for the IC50 at Genome polyprotein [1] and on Genome polyprotein [2] were above 99.5 µM and above 100 µM, respectively.

Turning to `Cc1c(C(=O)Nc2ccc3c(c2)C(=O)NC3)cc(C2CC2)n1C`, the IC50 was above 99.5 µM against Genome polyprotein [1] and above 100 µM against Genome polyprotein [2].

In the case of `COC(=O)[C@H]1NCc2cc(NC(=O)c3cc(F)cc4[nH]ncc34)ccc21`, the IC50 at Genome polyprotein [1] was above 99.5 µM; against Genome polyprotein [2], above 100 µM.

As for `N#Cc1cccc(-c2nc3c(C(=O)Nc4ccccn4)cc(Cl)cc3[nH]2)c1`, the IC50 on Genome polyprotein [1] was 28.9 µM; on Genome polyprotein [2], above 100 µM.

As for `Nc1ccncc1-c1cc(F)cc(C(=O)Nc2ccc3c(c2)CNC3)c1`, the IC50 was above 99.5 µM on Genome polyprotein [1] and above 100 µM at Genome polyprotein [2].

In the case of `C[C@H]1C(=O)Nc2ccc(C(=O)Nc3ccc4c(c3)CNC4)cc21`, the IC50 is 34.5 µM on Genome polyprotein [1]; 25.1 µM and 17.2 µM against Genome polyprotein [2].

For `COCCN(C)C(=O)[C@H](Nc1ccc2c(c1)CNC2)c1cc(Cl)cc(C2CC2)c1`, the IC50 against Genome polyprotein [1] is above 99.5 µM; against Genome polyprotein [2], above 100 µM.

With `O=C1C[C@H](c2cccc(-c3cc(F)cc(C(=O)Nc4ccc5c(c4)CNC5)c3)c2)N1`, the IC50 against Genome polyprotein [1] was above 99.5 µM; at Genome polyprotein [2] it was above 100 µM.

Regarding `CC(=O)N(c1ccc2c(c1)CNC2)[C@]1(c2cc(Cl)cc(C3CC3)c2)CCCN(C)C1=O`, the values for the IC50 at Genome polyprotein [1] and on Genome polyprotein [2] were above 99.5 µM and above 100 µM, respectively.

For the compound `O=C1Cc2c(cccc2C(=O)Nc2nc([C@H]3CCCOC3)cs2)N1`, the figures for the IC50 against Genome polyprotein [1] and against Genome polyprotein [2] were above 99.5 µM and above 100 µM, respectively.

In the case of `Cc1c(C(=O)Nc2cccc(CN3CCCC3=O)c2)cc(C2CC2)n1C`, the IC50 at Genome polyprotein [1] is above 99.5 µM; at Genome polyprotein [2], above 100 µM.

Take `CN(C)C(=O)C[C@H]1NCc2cc(NC(=O)c3cc(F)cc4[nH]ncc34)ccc21`: the IC50 against Genome polyprotein [1] was above 99.5 µM; against Genome polyprotein [2] it was 54.5 µM and 71.7 µM.

Consider `C[C@H]1NCc2cc(NC(=O)c3cc(F)cc4[nH]ncc34)ccc21`, for which the IC50 is 69.8 µM against Genome polyprotein [1]; 62.2 µM and 68.2 µM on Genome polyprotein [2].

Consider `O=C(Nc1ccc2c(c1)CNC2)c1cc(Cl)cc2[nH]c(-c3ccccc3)nc12`, for which the IC50 at Genome polyprotein [1] is 3.31 µM; against Genome polyprotein [2], 51.8 µM and 21.4 µM.

In the case of `O=C1Cc2c(cccc2C(=O)Nc2ccc(N3CCOC3=O)nc2)N1`, the IC50 at Genome polyprotein [1] is above 99.5 µM; on Genome polyprotein [2], above 100 µM.

Turning to `O=C(NCC(F)F)[C@H](Nc1ccc2c(c1)CNC2)c1cc(Br)ccc1Oc1ccc(Cl)c(Cl)c1`, the results for the IC50 against Genome polyprotein [1] and at Genome polyprotein [2] were above 99.5 µM and above 100 µM, respectively.

Consider `Cc1cc(NC(=O)c2cc(C3CC3)n(C)c2C)ccc1OC1CCOCC1`, for which the values for the half-inhibitory concentration (IC50) on Genome polyprotein [1] and at Genome polyprotein [2] were above 99.5 µM and above 100 µM, respectively.

With `O=C(Nc1ccc2c(c1)CN[C@H]2C(=O)O)c1cc(F)cc2[nH]ncc12`, the 50% inhibitory concentration (IC50) is 71.1 µM at Genome polyprotein [1]; 79.4 µM and > 100 µM at Genome polyprotein [2].

For the compound `Cc1c(C(=O)Nc2ccc3c(c2)CN(C)C3=O)cc(C2CC2)n1C`, the IC50 is above 99.5 µM at Genome polyprotein [1] and above 100 µM at Genome polyprotein [2].

`Cn1nc(CNc2cc([C@H]3CCOC3)ccn2)cc1C1CC1`: the figures for the IC50 on Genome polyprotein [1] and against Genome polyprotein [2] were above 99.5 µM and above 100 µM, respectively.

`O=C([C@H](Nc1ccc2c(c1)CNC2)c1cc(Cl)cc(C2CC2)c1)N1CCOCC1`: the results for the IC50 against Genome polyprotein [1] and against Genome polyprotein [2] were above 99.5 µM and above 100 µM, respectively.

The values are drawn from ChEMBL document CHEMBL5604063, “ASAP - DENV-2 NS2B-NS3 protease fluorescence dose response” (2024).
